Experimental data from patent publication US20230248646A1 (The General Hospital Corporation, priority 2013, published 2023).
Like-named read-outs stand apart in the source and are kept apart here.

Assays:
[1] = NGI cascade impactor test, active dry powder inhaler with piezoelectric vibrator; format: physicochemical; details: NGI approx. 30 L/min for 2 seconds
Source text: The inhaler device included injection molded plastic components, electronics, a battery, and drug filled blisters. The inhaler included a lever arm, upon actuation of which the blister was placed in contact with a piezoelectric vibrator within the device and then pierced by needles. The inhaler also included an airflow sensor which automatically turned on the piezoelectric vibrator after a minimum inspiratory flow rate was exceeded. Activation of the piezoelectric vibrator […] powder particles and aerosolized them out of the blister and into the inspiratory airstream. The inhaler included visual feedback at the start of dosing and as confirmation of successful completion of dosing, thereby facilitating improved patient compliance. […] A blend containing disodium cromoglycate (DSCG) (Cambrex) and lactose monohydrate (DFE Pharma) (grade: lactohale LH201) was prepared by blending at a speed of 150 rpm for 15 minutes. The blend contained 60:40 (wt/wt.) DSCG:lactose. Neat DSCG also was tested.

[2] = NGI cascade impactor test, single-use passive dry powder inhaler ([…], Aespira); format: physicochemical; details: NGI approx. 100 L/min for 2.4 seconds
Description: Delivery of cromolyn by a single-use passive dry powder inhaler device was assessed. The passive inhaler device included an active particle dispersion mechanism ([…]) involving breath-driven beating of a mesh package containing the powder to be delivered. A blend containing disodium cromoglycate (DSCG) (Cambrex) and Lactohale LH300 lactose (Friesland Foods Domo) was prepared by blending in an Alpine Picoline high shear mixer (module Picomix) (Hosokawa Alpine, Augsburg, Germany) at a speed of 4000 rpm for 3 minutes. The blend contained 80:20 (wt/wt.) DSCG:lactose. Neat DSCG also was tested.

[3] = NGI impactor fractions with AZHALER dry powder inhaler; format: physicochemical; details: per 17.1 mg of API
Source text: AZHALER. […] It is a single-dose device used to deliver the inhalation powder to the patient's lung in form of an aerosol. The inhaler consists of a container, a valve, and a mouthpiece. In this study the low resistance model (80 L airflow resistance) was used. These device reaches a pressure drop of 4 kPa at c.80 L/min, and is suitable for use on a wide range of patient population i.e. including elderly, children and patients with severe respiratory impairment

[4] = Phase 1 pharmacokinetic study of inhaled cromolyn, plasma; format: in vivo, human; details: for Tmax / Vd/F / AUC(0-inf) / Cmax / half-life: human; for half-life: read-out: apparent t1/2 range
[5] = Initial characterization of manufactured cromolyn (particle size distribution); format: physicochemical
Source text: Cromolyn capsules for inhalation were manufactured by Pharmaterials, Ltd (Reading, UK). […] Therefore, there was a need to use hydrophobic excipient in the powder formulation to improve product performance and stability. Addition of hydrophobic excipient offers inherent resistance of dry powder inhalation formulations to negative effect of moisture to such formulations. Magnesium stearate was chosen as suitable hydrophobic excipient since it is commercially used in dry powder inhaler (DPI) products. […] Lactose monohydrate was additionally used as diluent for this case.

[6] = 17.1 mg single inhaled dose, mean
[7] = 34.2 mg double inhaled dose, mean
[8] = inhaled or intranasal, 17.1 mg, 17.1 mg single inhaled dose, mean
[9] = inhaled or intranasal, 34.2 mg, 34.2 mg double inhaled dose, mean

Q: Which results are given for `O=C(O)c1cc(=O)c2c(OCC(O)COc3cccc4oc(C(=O)O)cc(=O)c34)cccc2o1` [DSCG:lactose 100:0, disodium cromoglycate]?
A: Fine Particle Dose <5 μm [1]: 2321 µg; Fine Particle Fraction <5 μm [1]: 59 % of delivered dose; Stages 4 to 8 [1]: 2098 µg; Stages 4 to 8 (% of initial dose) [1]: 42 % of initial dose; Fine Particle Dose <5 μm [2]: 430 µg; Fine Particle Dose <5 μm (% of initial dose) [2]: 9 % of initial dose; MMAD [2]: >4 μm; Stages 4 to 8 [2]: 150 µg; Stages 4 to 8 (% of initial dose) [2]: 3 % of initial dose

Q: With `O=C(O)c1cc(=O)c2c(OCC(O)COc3cccc4oc(C(=O)O)cc(=O)c34)cccc2o1` [cromolyn, 5,5′-(2-hydroxypropane-1,3-diyl)bis(oxy)bis(4-oxo-4H-chromene-2-carboxylic acid)] as the compound, how does the “cromolyn in the impactor fractions with <3 micron size particles (NGI stage 4-MOC)” value [3] read?
A: Its value is 4 to 5 mg.

Q: What about the Cl/F [4, 6] of the same compound?
A: The Cl/F was 108532.36 mL/h.

Q: And the T0.5 [4, 6]?
A: The T0.5 was 1.75 ± 0.9 h.

Q: What about the T0.5 ([4]; 17.1 mg single inhaled dose, mean, listed as Cromolyn) of the same compound?
A: Its T0.5 is 1.75 h.

Q: And the Cl/F ([4]; 17.1 mg, Max)?
A: The Cl/F was 183363.7 mL/h.

Q: And the T0.5 ([4]; 17.1 mg, Max)?
A: The T0.5 was 3.7 h.

Q: And the T0.5 ([4]; 17.1 mg, Min)?
A: Its T0.5 is 0.6, h.

Q: What about the Cl/F ([4]; 17.1 mg, median) of the same compound?
A: Its Cl/F is 82640.18 mL/h.

Q: What about the T0.5 ([4]; 17.1 mg, median) of the same compound?
A: The T0.5 was 1.56 h.

Q: What about the Cl/F [4, 7] of the same compound?
A: The Cl/F was 132178.06 mL/h.

Q: What about the T0.5 [4, 7] of the same compound?
A: The T0.5 was 1.91 ± 0.7 h.

Q: What about the T0.5 ([4]; 34.2 mg double inhaled dose, mean, listed as Cromolyn) of the same compound?
A: The T0.5 was 1.91 h.

Q: And the Cl/F ([4]; 34.2 mg, median)?
A: The Cl/F was 130382.20 mL/h.

Q: What about the T0.5 ([4]; 34.2 mg, median) of the same compound?
A: Its T0.5 is 1.80 h.

Q: And the Tmax [4, 8]?
A: Its Tmax is 22.8 min.

Q: What about the Vd/F [4, 8] of the same compound?
A: The Vd/F was 137 L.

Q: And the AUC(0-inf) ([4]; inhaled or intranasal, 17.1 mg, 17.1 mg single inhaled dose, mean, read-out: AUC0-inf)?
A: Its AUC(0-inf) is 196 ± 97.3 ng·h/mL.

Q: What about the Cmax ([4]; inhaled or intranasal, 17.1 mg, 17.1 mg single inhaled dose, mean, read-out: Cmax) of the same compound?
A: Its Cmax is 46.7 ng/mL.

Q: And the half-life ([4]; inhaled or intranasal, 17.1 mg)?
A: The half-life was 36 to 222 min.

Q: What about the AUC(0-inf) ([4]; inhaled or intranasal, 17.1 mg, single (17.1 mg) dose inhalation, range, read-out: AUC0-inf range) of the same compound?
A: The AUC(0-inf) was 93.3 to 287 ng·h/mL.

Q: And the Cmax ([4]; inhaled or intranasal, 17.1 mg, single dose (17.1 mg) inhalation, mean ± SD, read-out: average Cmax)?
A: Its Cmax is 46.7 ± 33 ng/mL.

Q: And the Cmax ([4]; inhaled or intranasal, 17.1 mg, single dose (17.1 mg) inhalation, range, read-out: Cmax range)?
A: The Cmax was 14 to 133 ng/mL.

Q: What about the Tmax [4, 9] of the same compound?
A: Its Tmax is 22.2 min.

Q: And the Vd/F [4, 9]?
A: The Vd/F was 330 L.

Q: What about the AUC(0-inf) ([4]; inhaled or intranasal, 34.2 mg, 34.2 mg double inhaled dose, mean, read-out: AUC0-inf) of the same compound?
A: Its AUC(0-inf) is 285 ± 91.3 ng·h/mL.

Q: And the Cmax ([4]; inhaled or intranasal, 34.2 mg, 34.2 mg double inhaled dose, mean, read-out: Cmax)?
A: Its Cmax is 96.8 ng/mL.

Q: And the AUC(0-inf) ([4]; inhaled or intranasal, 34.2 mg, double (34.2 mg) dose inhalation, range, read-out: AUC0-inf range)?
A: Its AUC(0-inf) is 155 to 443 ng·h/mL.

Q: And the Cmax ([4]; inhaled or intranasal, 34.2 mg, double dose (34.2 mg) inhalation, mean ± SD, read-out: average Cmax)?
A: The Cmax was 96.8 ± 46.2 ng/mL.

Q: What about the Cmax ([4]; inhaled or intranasal, 34.2 mg, double dose (34.2 mg) inhalation, range, read-out: Cmax range) of the same compound?
A: Its Cmax is 36.1 to 236 ng/mL.

Q: And the half-life ([4]; inhaled or intranasal, double dose (34.2 mg) inhalation, range)?
A: The half-life was 42 to 228 min.

Q: What about the Tmax ([4]; inhaled, 17.1 mg, Max) of the same compound?
A: Its Tmax is 60 min.

Q: And the Vd/F ([4]; inhaled, 17.1 mg, Max)?
A: The Vd/F was 144 L.

Q: What about the AUC(0-inf) ([4]; inhaled, 17.1 mg, Max, read-out: AUC0-inf) of the same compound?
A: The AUC(0-inf) was 287 ng·h/mL.

Q: And the Cmax ([4]; inhaled, 17.1 mg, Max, read-out: Cmax)?
A: Its Cmax is 133 ng/mL.

Q: And the Tmax ([4]; inhaled, 17.1 mg, Min)?
A: The Tmax was 6 min.

Q: What about the Vd/F ([4]; inhaled, 17.1 mg, Min) of the same compound?
A: The Vd/F was 134 L.

Q: What about the AUC(0-inf) ([4]; inhaled, 17.1 mg, Min, read-out: AUC0-inf) of the same compound?
A: Its AUC(0-inf) is 93.3 ng·h/mL.

Q: And the Cmax ([4]; inhaled, 17.1 mg, Min, read-out: Cmax)?
A: Its Cmax is 14 ng/mL.

Q: And the Tmax ([4]; inhaled, 17.1 mg, median)?
A: The Tmax was 15 min.

Q: What about the Vd/F ([4]; inhaled, 17.1 mg, median) of the same compound?
A: Its Vd/F is 134 L.

Q: And the AUC(0-inf) ([4]; inhaled, 17.1 mg, median, read-out: AUC0-inf)?
A: The AUC(0-inf) was 207 ng·h/mL.

Q: What about the Cmax ([4]; inhaled, 17.1 mg, median, read-out: Cmax) of the same compound?
A: Its Cmax is 36.2 ng/mL.

Q: What about the Tmax ([4]; inhaled, 34.2 mg, median) of the same compound?
A: Its Tmax is 13.8 min.

Q: What about the Vd/F ([4]; inhaled, 34.2 mg, median) of the same compound?
A: The Vd/F was 264 L.

Q: And the AUC(0-inf) ([4]; inhaled, 34.2 mg, median, read-out: AUC0-inf)?
A: Its AUC(0-inf) is 262 ng·h/mL.

Q: What about the Cmax ([4]; inhaled, 34.2 mg, median, read-out: Cmax) of the same compound?
A: The Cmax was 76.5 ng/mL.

Q: What about the “initial characterization of the material” value ([5]; manufactured cromolyn) of the same compound?
A: Its value is “crystalline and hygroscopic material”.

Q: And the “particle size distribution d50” value ([5]; micronized cromolyn)?
A: Its value is under 5 μm.

Q: And the “particle size distribution d90” value ([5]; micronized cromolyn)?
A: The value was under 10 μm.
